The NIST ThermoML archive (doi:10.1016/j.fluid.2014.11.010)
Numbers after ± are expanded uncertainties.

Conditions: 313.15 K; Liquid; Closed cell (Static) method

Row | vapor or sublimation pressure [kPa] | Compound
1 | 6.05 ± 0.02 | CCC(C)O (centres undefined) [butan-2-ol]
2 | 45 ± 0.092 | C=CCCCC [hex-1-ene]
3 | 2.506 ± 0.015 | CCCCO [butan-1-ol]

Row | Compound | vapor or sublimation pressure [kPa]
4 | Cc1ccccc1 [toluene] | 7.876 ± 0.022
